The results in this text go back to ChEMBL document CHEMBL4706587 (Eur J Med Chem, 2020).

The target in test [1] is T1, Amine oxidase [flavin-containing] B (Homo sapiens, UniProt P27338).
T1 sequence (P27338 whole entry): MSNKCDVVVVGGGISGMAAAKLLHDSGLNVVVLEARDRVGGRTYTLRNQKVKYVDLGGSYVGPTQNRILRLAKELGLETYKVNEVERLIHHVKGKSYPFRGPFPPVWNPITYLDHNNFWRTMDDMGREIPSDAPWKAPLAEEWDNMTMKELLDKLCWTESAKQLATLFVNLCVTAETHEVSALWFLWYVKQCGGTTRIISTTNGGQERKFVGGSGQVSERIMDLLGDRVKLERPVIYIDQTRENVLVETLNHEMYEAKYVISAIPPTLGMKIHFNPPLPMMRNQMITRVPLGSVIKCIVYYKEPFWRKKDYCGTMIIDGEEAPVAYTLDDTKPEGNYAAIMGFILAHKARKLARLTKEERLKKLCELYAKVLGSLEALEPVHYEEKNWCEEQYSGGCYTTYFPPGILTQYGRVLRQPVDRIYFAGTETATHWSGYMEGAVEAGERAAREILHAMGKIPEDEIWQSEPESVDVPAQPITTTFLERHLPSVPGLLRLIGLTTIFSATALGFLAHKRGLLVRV
The following applies: BTI, 1 h, read-out: INH.
Description: Inhibition of recombinant human MAO-B expressed in baculovirus infected BTI insect cells at 1 uM using p-tyramine as substrate preincubated for 30 mins followed by substrate addition and measured after 1 hr by fluorimetric analysis relative to control

Test [2] concerns the target T1, Amine oxidase [flavin-containing] B. The experiment in a line: Inhibition of recombinant human MAO-B expressed in baculovirus infected BTI insect cells using p-tyramine as substrate preincubated for 30 mins followed by substrate addition and measured after 1 hr by fluorimetric analysis.
The target in test [3] is 5-hydroxytryptamine receptor 6 (Homo sapiens, UniProt P50406). The experiment in a line: Displacement of [3H]-LSD from human 5HT6 receptor expressed in HEK293 cells measured after 1 hr by microbeta plate reader method. It is filed as cell-based.
5-hydroxytryptamine receptor 6, sequence (P50406 whole entry): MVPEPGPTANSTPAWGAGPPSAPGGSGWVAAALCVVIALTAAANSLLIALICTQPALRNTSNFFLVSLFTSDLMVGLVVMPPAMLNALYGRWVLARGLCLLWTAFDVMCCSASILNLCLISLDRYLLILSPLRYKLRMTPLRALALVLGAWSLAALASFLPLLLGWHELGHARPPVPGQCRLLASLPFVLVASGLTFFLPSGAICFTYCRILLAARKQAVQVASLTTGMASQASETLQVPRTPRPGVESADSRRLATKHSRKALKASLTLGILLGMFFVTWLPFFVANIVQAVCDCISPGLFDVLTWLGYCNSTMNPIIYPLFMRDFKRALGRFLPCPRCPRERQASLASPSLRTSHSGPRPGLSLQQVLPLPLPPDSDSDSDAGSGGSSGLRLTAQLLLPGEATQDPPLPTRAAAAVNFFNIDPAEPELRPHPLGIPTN

Some results are limits rather than exact numbers.

As to `O=S(=O)(c1ccccc1)n1ccc2c(N3CCNCC3)cccc21`, the inhibition at 1 µM in test [1] is 3%.

Regarding `C#CCNC1CCc2c(OCCCCN3CCN(c4cccc5c4ccn5S(=O)(=O)c4ccccc4)CC3)cccc21` (stereo not given), the IC50 in test [2] was > 1 µM. Also, in test [1], the inhibition at 1 µM is 44%. The same compound had an inhibition constant (Ki) in test [3] of 0.05 µM.

For the compound `C#CCNC1CCc2c(OCCCCCCN3CCN(c4cccc5c4ccn5Cc4cccc(Cl)c4)CC3)cccc21` (stereo not given), the IC50 in test [2] was > 1 µM. Moreover, the inhibition at 1 µM in test [1] was found to be 34%. Besides, the affinity in test [3] corresponds to a Ki of 0.259 µM.

`C[C@H](NCc1ccc(OCCCCCCN2CCN(c3cccc4c3ccn4Cc3cccc(Cl)c3)CC2)cc1)C(N)=O`: in test [2], the IC50 was > 1 µM. Besides, the inhibition at 1 µM in test [1] was 23%. Moreover, in test [3], the Ki stood at 0.34 µM.

As for `C[C@H](NCc1ccc(OCCCCCN2CCN(c3cccc4c3ccn4S(=O)(=O)c3ccccc3)CC2)cc1)C(N)=O`, the IC50 in test [2] is > 1 µM. The inhibition at 1 µM in test [1] is 17%. Further, in test [3], the inhibitory constant (Ki) was 0.065 µM.

`C#CCNC1CCc2c(OCCCCCN3CCN(c4cccc5c4ccn5Cc4cccc(Cl)c4)CC3)cccc21` (stereo not given): the IC50 in test [2] was 0.46 µM. Moreover, the inhibition at 1 µM in test [1] turned out to be 80%. The Ki in test [3] came out at 0.223 µM.

Consider `C[C@H](NCc1ccc(OCCCCN2CCN(c3cccc4c3ccn4S(=O)(=O)c3ccccc3)CC2)cc1)C(N)=O`, for which, in test [2], the IC50 is > 1 µM. In test [1], the inhibition at 1 µM was 20%. The same compound registered a Ki in test [3] of 0.068 µM.

As to `C#CCN(C)Cc1ccc(OCCCCN2CCN(c3cccc4c3ccn4S(=O)(=O)c3ccccc3)CC2)cc1`, the IC50 in test [2] was > 1 µM. For the same compound, the inhibition at 1 µM in test [1] was 51%. This compound came in with an inhibition constant Ki in test [3] of 0.054 µM.

With `C[C@H](NCc1ccc(OCCCCN2CCN(c3cccc4c3ccn4Cc3cccc(Cl)c3)CC2)cc1)C(N)=O`, the IC50 in test [2] is > 1 µM. Besides, the inhibition at 1 µM in test [1] was found to be 24%. This compound also had a Ki in test [3] of 0.162 µM.

On to `C#CCN(C)Cc1ccc(OCCCCCN2CCN(c3cccc4c3ccn4Cc3cccc(Cl)c3)CC2)cc1`, for which the IC50 in test [2] worked out at 0.03 µM. In addition, the inhibition at 1 µM in test [1] was 100%. The same compound registered a Ki in test [3] of 0.14 µM.

For `C#CCN(C)Cc1ccc(OCCCCCCN2CCN(c3cccc4c3ccn4Cc3cccc(Cl)c3)CC2)cc1`, the IC50 in test [2] was > 1 µM. In test [1], the inhibition at 1 µM amounted to 32%. The compound also displayed an inhibitory constant (Ki) in test [3] of 0.137 µM.

In the case of `C#CCNC1CCc2c(OCCCN3CCN(c4cccc5c4ccn5Cc4cccc(Cl)c4)CC3)cccc21` (stereo not given), the IC50 in test [2] was > 1 µM. For the same compound, the inhibition at 1 µM in test [1] was 31%. The same compound had a Ki in test [3] of 0.077 µM.

As to `C#CCNC1CCc2c(OCCCCCN3CCN(c4cccc5c4ccn5S(=O)(=O)c4ccccc4)CC3)cccc21` (stereo not given), the IC50 in test [2] was determined as 0.163 µM. In addition, the inhibition at 1 µM in test [1] was 90%. This compound gave a Ki in test [3] of 0.051 µM.

For the compound `Clc1cccc(Cn2ccc3c(N4CCNCC4)cccc32)c1`, in test [1], the inhibition at 1 µM was 3%. Besides, in test [3], the affinity, expressed as Ki, was 0.007 µM.

As to `C#CCN(C)Cc1ccc(OCCCCN2CCN(c3cccc4c3ccn4Cc3cccc(Cl)c3)CC2)cc1`, the half-inhibitory concentration (IC50) in test [2] was found to be 0.323 µM. In addition, the inhibition at 1 µM in test [1] came out at 85%. In test [3], affinity was put at a Ki of 0.195 µM.

Take `C[C@H](NCc1ccc(OCCCN2CCN(c3cccc4c3ccn4Cc3cccc(Cl)c3)CC2)cc1)C(N)=O`: in test [2], the IC50 is > 1 µM. Further, in test [1], the inhibition at 1 µM was 47%. Moreover, the Ki in test [3] worked out at 0.158 µM.

Consider `C#CCNC1CCc2c(OCCN3CCN(c4cccc5c4ccn5Cc4cccc(Cl)c4)CC3)cccc21` (stereo not given), for which the IC50 in test [2] is > 1 µM. Also, the inhibition at 1 µM in test [1] was 35%. Moreover, the Ki in test [3] came out at 0.1 µM.

Consider `C#CCNC1CCc2c(OCCCCN3CCN(c4cccc5c4ccn5Cc4cccc(Cl)c4)CC3)cccc21` (stereo not given), for which the IC50 in test [2] amounted to 0.27 µM. Besides, the inhibition at 1 µM in test [1] was determined as 100%. Also, the Ki in test [3] is 0.113 µM.

With `C[C@H](NCc1ccc(OCCCCCN2CCN(c3cccc4c3ccn4Cc3cccc(Cl)c3)CC2)cc1)C(N)=O`, the IC50 in test [2] was > 1 µM. The inhibition at 1 µM in test [1] is 43%. Moreover, the Ki in test [3] came to 0.232 µM.

In turn, `C#CCN[C@@H]1CCc2ccccc21` [RASAGILINE] displayed a Ki in test [3] of 0.0014 µM.
